Source: patent publication US20220135567A1, “TYK2 PSEUDOKINASE LIGANDS” (Ventyx Biosciences, Inc., priority 2019, published 2022)

The molecules below were run on IFN-a/Jak1Tyk2 (assay: Co-stimulation assay in lysed whole blood: IFNa (JAK1/TYK2) stimulated STAT1 phosphorylation). Conditions: 20 min, lysed human whole blood, IFNa 100 ng/mL + GM-CSF 10 ng/mL, pSTAT1 by flow cytometry.
Assay type: cell-based
Outline: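 Red-cell-lysed human whole blood, pretreated with compound for 1 h at 37°C, was stimulated 20 min at 37°C with IFNa (100 ng/mL final) plus GM-CSF (10 ng/mL final). Cells were then fixed/lysed, permeabilised in Perm Buffer III and stained overnight for pSTAT1 (PE) and pSTAT5. Read-out by flow cytometry.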
Work on CNc1cc(Nc2cccc3c2OCCO3)nc2c(C(=O)NC3CC(O)C3)cnn12 (stereo not drawn) [Compound 102, 5-((2,3-dihydrobenzo[b][1,4]dioxin-5-yl)amino)-N-(3-hydroxycyclobutyl)-7-(methylamino)pyrazolo[1,5-a]pyrimidine-3-carboxamide] yielded an IC50 of less than 100 nM.
Work on CNc1cc(Nc2cccn(-c3ccc(OC)nn3)c2=O)nc2c(C(=O)NCC(C)(C)O)cnn12 [Compound 103, N-(2-hydroxy-2-methylpropyl)-5-((1-(6-methoxypyridazin-3-yl)-2-oxo-1,2-dihydropyridin-3-yl)amino)-7-(methylamino)pyrazolo[1,5-a]pyrimidine-3-carboxamide] yielded an IC50 of 1000 to 10000 nM.
For CNc1cc(Nc2cccn(-c3ccc(OC)nn3)c2=O)nc2c(C(=O)NC3CC(O)C3)cnn12 (stereo not drawn) [Compound 104, N-(3-hydroxycyclobutyl)-5-((1-(6-methoxypyridazin-3-yl)-2-oxo-1,2-dihydropyridin-3-yl)amino)-7-(methylamino)pyrazolo[1,5-a]pyrimidine-3-carboxamide], the IC50 was 100 to 1000 nM.
CNc1cc(Nc2cccn(-c3ccc(OC)nn3)c2=O)nc2c(C(=O)NCC(C)(O)CO)cnn12 (stereo not drawn) [Compound 105, N-(2,3-dihydroxy-2-methylpropyl)-5-((1-(6-methoxypyridazin-3-yl)-2-oxo-1,2-dihydropyridin-3-yl)amino)-7-(methylamino)pyrazolo[1,5-a]pyrimidine-3-carboxamide] showed an IC50 greater than 3000 nM.
Molecule CNc1cc(Nc2cccn(-c3ccc(OC)nn3)c2=O)nc2c(C(=O)NC3CCOC3)cnn12 (stereo not drawn) [Compound 106, 5-((1-(6-methoxypyridazin-3-yl)-2-oxo-1,2-dihydropyridin-3-yl)amino)-7-(methylamino)-N-(tetrahydrofuran-3-yl)pyrazolo[1,5-a]pyrimidine-3-carboxamide] has an IC50 of 100 to 1000 nM.
In the case of CNc1cc(Nc2cccn(C)c2=O)nc2c(C(=O)N[C@H]3C[C@H]3F)cnn12 [Compound 107, N-((1S,2R)-2-fluorocyclopropyl)-5-((1-methyl-2-oxo-1,2-dihydropyridin-3-yl)amino)-7-(methylamino)pyrazolo[1,5-a]pyrimidine-3-carboxamide], the IC50 is reported as less than 100 nM.
In the case of CCOc1ccc(-n2cccc(Nc3cc(NC)n4ncc(C(=O)NC5CCC5)c4n3)c2=O)nn1 [Compound 108, N-cyclobutyl-5-((1-(6-ethoxypyridazin-3-yl)-2-oxo-1,2-dihydropyridin-3-yl)amino)-7-(methylamino)pyrazolo[1,5-a]pyrimidine-3-carboxamide], the IC50 is reported as less than 100 nM.
For CNc1cc(Nc2cc(F)cc3c2OCCO3)nc2c(C(=O)NCC(C)(C)CO)cnn12 [Compound 109, 5-((7-fluoro-2,3-dihydrobenzo[b][1,4]dioxin-5-yl)amino)-N-(3-hydroxy-2,2-dimethylpropyl)-7-(methylamino)pyrazolo[1,5-a]pyrimidine-3-carboxamide], the IC50 was less than 100 nM.
Work on CNc1cc(Nc2cccn(-c3ccnc(C)n3)c2=O)nc2c(C(=O)NC3CCC3)cnn12 [Compound 110, N-cyclobutyl-7-(methylamino)-5-((1-(2-methylpyrimidin-4-yl)-2-oxo-1,2-dihydropyridin-3-yl)amino)pyrazolo[1,5-a]pyrimidine-3-carboxamide] yielded an IC50 of less than 100 nM.
Molecule CNc1cc(Nc2cccn(-c3cccc(C)n3)c2=O)nc2c(C(=O)N[C@H]3C[C@H]3F)cnn12 [Compound 111, N-((1S,2R)-2-fluorocyclopropyl)-5-((6′-methyl-2-oxo-2H-[1,2′-bipyridin]-3-yl)amino)-7-(methylamino)pyrazolo[1,5-a]pyrimidine-3-carboxamide] has an IC50 of less than 100 nM.
For CNc1cc(Nc2cccn(-c3cccc(C)n3)c2=O)nc2c(C(=O)NC3CCC3)cnn12 [Compound 112, N-cyclobutyl-5-((6′-methyl-2-oxo-2H-[1,2′-bipyridin]-3-yl)amino)-7-(methylamino)pyrazolo[1,5-a]pyrimidine-3-carboxamide], the IC50 was less than 100 nM.
CNc1cc(Nc2cccn(C)c2=O)nc2c(C(=O)NC3CCC3)cnn12 [Compound 113, N-cyclobutyl-5-((1-methyl-2-oxo-1,2-dihydropyridin-3-yl)amino)-7-(methylamino)pyrazolo[1,5-a]pyrimidine-3-carboxamide] was tested, and the IC50 was less than 100 nM.
CNc1cc(Nc2cccn(-c3ccccn3)c2=O)nc2c(C(=O)NC3CCC3)cnn12 [Compound 114, N-cyclobutyl-7-(methylamino)-5-((2-oxo-2H-[1,2′-bipyridin]-3-yl)amino)pyrazolo[1,5-a]pyrimidine-3-carboxamide] gave an IC50 of less than 100 nM.
For CNc1cc(Nc2cccn(-c3ccccn3)c2=O)nc2c(C(=O)N[C@H]3C[C@H]3F)cnn12 [Compound 115, N-((1S,2R)-2-fluorocyclopropyl)-7-(methylamino)-5-((2-oxo-2H-[1,2′-bipyridin]-3-yl)amino)pyrazolo[1,5-a]pyrimidine-3-carboxamide], the IC50 was less than 100 nM.
With CNc1cc(Nc2cnn(C3CCNC3=O)c2)nc2c(C(=O)NC3CC3)cnn12 (stereo not drawn) [Compound 116, N-cyclopropyl-7-(methylamino)-5-((1-(2-oxopyrrolidin-3-yl)-1H-pyrazol-4-yl)amino)pyrazolo[1,5-a]pyrimidine-3-carboxamide] the IC50 was 1000 to 10000 nM.
